Assay results published in PMC9653409, “Generative deep learning enables the discovery of a potent and selective RIPK1 inhibitor” (Nature Communications, 2022).
pEC50, pIC50: −log10 of the molar value.

Assays:
RIPK1 [1] = target: T1, RIPK1 (Homo sapiens, UniProt Q13546); conditions: cited from earlier work
T1 sequence (Q13546 1-671): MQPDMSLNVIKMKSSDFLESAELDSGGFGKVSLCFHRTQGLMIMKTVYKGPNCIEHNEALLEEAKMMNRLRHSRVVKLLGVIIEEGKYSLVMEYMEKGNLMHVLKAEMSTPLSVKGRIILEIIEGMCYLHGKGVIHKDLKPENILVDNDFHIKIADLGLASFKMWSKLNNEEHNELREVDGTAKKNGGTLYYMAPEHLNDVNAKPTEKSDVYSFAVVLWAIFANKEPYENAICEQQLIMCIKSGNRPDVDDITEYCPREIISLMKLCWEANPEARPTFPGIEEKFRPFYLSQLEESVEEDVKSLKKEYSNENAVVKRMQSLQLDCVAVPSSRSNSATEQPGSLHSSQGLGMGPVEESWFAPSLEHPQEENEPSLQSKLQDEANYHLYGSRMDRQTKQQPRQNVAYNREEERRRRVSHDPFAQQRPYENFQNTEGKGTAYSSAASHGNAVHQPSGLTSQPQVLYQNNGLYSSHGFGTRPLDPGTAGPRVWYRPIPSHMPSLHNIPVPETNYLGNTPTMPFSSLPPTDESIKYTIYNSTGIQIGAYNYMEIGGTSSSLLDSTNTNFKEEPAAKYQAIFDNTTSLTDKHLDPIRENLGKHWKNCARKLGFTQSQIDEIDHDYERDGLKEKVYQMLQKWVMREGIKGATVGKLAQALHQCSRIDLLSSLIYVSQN

RIPK1 [2] = target: T1, RIPK1; assay: RIPK1 kinase assay, 33P-labeled ATP assay at Eurofins; assay type: biochemical; conditions: read-out: RIPK1 IC50
Protocol: In vitro kinase activity assays were conducted through the Kinase Profiling Services provided by Eurofins (Eurofins, France). The protocol for the RIPK1 assay is briefly described as follows (Protocols for other kinases are very similar and can be found in http://www.eurofins.com/pharmadiscovery). RIPK1 kinase was incubated with the test compound in assay buffer containing 8 mM MOPS (pH 7.0), 0.2 mM EDTA, 250 μM […], 10 mM magnesium acetate, and 10 μM [γ-33P]-ATP for 15 min at room temperature. The reaction was initiated by the addition of the Mg/ATP mixture. After incubation for 40 min at room temperature, and the reaction was stopped by the addition of 3% phosphoric acid. A 10 μL portion of the reaction mixture was then spotted onto a P30 filter mat and washed four times for 4 min in 0.425% phosphoric acid and once in methanol prior to drying and scintillation counting.

HT29 cells = assay: TSZ-induced HT29 cell necroptosis model (CCK8); assay type: cell-based; conditions: Homo sapiens, HT-29; TSZ-induced necroptosis; read-out: HT29 EC50
Protocol: Cell necroptosis protection assays were performed in 96-well cell culture plates. Cells were plated in each well and cultured at 37 °C overnight. […] The cell survival rate was determined using a CCK8 cell viability assay kit and CLARIOstar (v5.61). […] All experiments were performed at least two times, and each EC50 value was expressed as mean ± standard deviation (SD).

[3] = Cytotoxicity at high concentration; assay type: cell-based; conditions: 3-10 μM

pIC50 (RIPK1 [2])	SMILES	potency against RIPK1 (RIPK1 [1]) [nM]	pEC50 (HT29 cells)	cytotoxicity [3]
–	CN1C(=O)NC(Cc2c[nH]c3c(Cl)cccc23)C1=O (centres unmarked) [Nec-1a]	317	–	–
7.19	CC(NC(=O)c1cn(C)c2ccc(-c3ccn4nc(NC(=O)C5CC5)cc4n3)cc12)c1ccccc1 (centres unmarked) [RI-056]	–	7.31	some cytotoxicity at high concentration (3-10 μM)
< 5.00	CNC(=O)c1n[nH]c2cc(-c3ccc(C(=O)NCc4ccc(OCCC5CC5)cc4)nc3)ccc12 [RI-413]	–	< 4.52	–
< 5.00	CC(NCC(=O)Nc1cccc(-c2cc(C(=O)NCc3cccc(F)c3)n(C)c2)n1)c1ccccc1F (centres unmarked) [RI-470, N-(3-fluorobenzyl)-4-(6-(2-((1-(2-fluorophenyl)ethyl)amino)acetamido)pyridin-2-yl)-1-methyl-1H-pyrrole-2-carboxamide]	–	< 4.00	–
< 5.00	Cc1cc(Oc2ccc(F)c(C(=O)NCc3ccc(F)cc3)n2)cc(C(=O)NCc2ccc(Br)s2)c1 [RI-539]	–	< 4.52	–
6.33	CCOc1ccccc1CNCC(=O)c1cn2ccc(-c3ccn4nc(NC(=O)C(C)C)nc4c3)cc2n1 [RI-753, N-(7-(2-((2-ethoxybenzyl)glycyl)imidazo[1,2-a]pyridin-7-yl)-[1,2,4]triazolo[1,5-a]pyridin-2-yl)isobutyramide]	–	7.19	–
< 5.00	CC(=O)Nc1cn2cc(-c3ccc(CNC(=O)c4cc(F)ccc4OCC4CCCC4)nc3)ccc2n1 [RI-985]	–	< 4.52	–
7.31	CC(NC(=O)c1cn(C)c2ccc(-c3ccn4nc(NC(=O)C5CC5)cc4n3)cc12)c1ccc(F)cc1 (centres unmarked) [RI-1155]	–	7.40	some cytotoxicity at high concentration (3-10 μM)
